The text below walks through data of patent US20220378923A1, “BET DEGRADER” (KYOWA KIRIN CO., LTD., priority 2019, published 2022).

In this assay the target is T1, interaction between BRD2 and E3 ligase DCAF16 (Homo sapiens, UniProt P25440).
T1 construct: expressed in transfected cells; host or cells: HEK293
T1 sequence (P25440 whole entry): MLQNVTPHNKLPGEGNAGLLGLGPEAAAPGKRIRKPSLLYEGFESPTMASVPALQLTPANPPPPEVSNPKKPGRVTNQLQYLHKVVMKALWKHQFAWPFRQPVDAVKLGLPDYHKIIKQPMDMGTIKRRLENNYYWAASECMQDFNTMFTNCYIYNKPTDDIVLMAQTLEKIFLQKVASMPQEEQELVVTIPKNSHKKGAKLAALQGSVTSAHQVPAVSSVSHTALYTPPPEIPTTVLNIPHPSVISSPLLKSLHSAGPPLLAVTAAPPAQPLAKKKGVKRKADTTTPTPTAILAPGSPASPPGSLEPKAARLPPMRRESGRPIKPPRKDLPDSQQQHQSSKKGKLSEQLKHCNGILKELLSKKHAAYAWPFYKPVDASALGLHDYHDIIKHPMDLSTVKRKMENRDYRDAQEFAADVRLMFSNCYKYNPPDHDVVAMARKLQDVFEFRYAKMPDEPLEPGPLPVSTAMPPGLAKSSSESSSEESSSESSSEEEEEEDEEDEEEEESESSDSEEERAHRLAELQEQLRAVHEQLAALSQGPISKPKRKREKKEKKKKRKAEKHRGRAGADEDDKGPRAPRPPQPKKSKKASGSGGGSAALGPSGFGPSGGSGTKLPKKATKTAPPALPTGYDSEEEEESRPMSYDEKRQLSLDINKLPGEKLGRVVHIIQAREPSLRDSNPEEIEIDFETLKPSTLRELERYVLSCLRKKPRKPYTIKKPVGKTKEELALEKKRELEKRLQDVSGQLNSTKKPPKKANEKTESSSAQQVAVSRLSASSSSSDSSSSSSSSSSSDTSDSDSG
T1 sequence (Q9NXF7 whole entry partner): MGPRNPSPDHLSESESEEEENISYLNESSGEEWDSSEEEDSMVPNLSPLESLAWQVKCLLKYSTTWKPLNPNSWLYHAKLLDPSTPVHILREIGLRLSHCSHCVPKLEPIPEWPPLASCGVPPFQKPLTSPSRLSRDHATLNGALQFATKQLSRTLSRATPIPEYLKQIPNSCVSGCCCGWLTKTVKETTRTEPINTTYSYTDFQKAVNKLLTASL
The experiment in a line: Verification of BET-DCAF16 interaction, NanoBRET in HEK293 cells (Test Example 7). It is filed as cell-based. The following applies: test compound 10 μmol/L, 2 hours; HEK293 cells expressing Nluc-BRD2 and DCAF16-HaloTag; bortezomib; average of n=3. As for the experimental part:
HEK293 cells (ATCC® CRL-1573™) were cultured using a carbon dioxide gas incubator (95% air, 5% CO2) at 37° C. in DMEM, High Glucose, Pyruvate (DMEM: Code No. 11995073, Thermo Fisher Scientific) in which inactivated fetal bovine serum (FBS: Code No. 10099-148 (Thermo Fisher Scientific) was added in an amount to give a final concentration of 10 vol %. A Falcon® 100 mm×20 mm cell culture dish (Code No. 353003, CORNING) was used for cell culture.
A sequence encoding BRD2 was cleaved from pFN21AB3863 (Code No. FHC01342, Kazusa Genome Technologies) using Flexi Enzyme Blend (SgfI and PmeI) (Code No. R1852, Promega) and recombined with pFN31A Nluc CMV-Hygro Flexi® Vector (Code No. N131A, Promega) similarly cleaved using Flexi Enzyme Blend (SgfI and PmeI) to prepare a plasmid pFN31A_BRD2 expressing BRD2 with an Nluc tag added to the N-terminal. A sequence encoding DCAF16 having sgfI and pmeI restriction enzyme sites at both ends was amplified and purified by polymerase chain reaction using two primers, […] (SEQ ID NO: 4) and […] (SEQ ID NO: 5) from cDNA derived from HEK293 cells. Cleavage was performed using Flexi Enzyme Blend (SgfI and PmeI), and pFC27K HaloTag® CMV-neo Flexi® Vector (Code No. G8431, Promega) cleaved using Carboxy Flexi Enzyme Blend (Sgf I and EcoICR I) (Code No. R1901, Promega) was recombined to prepare a plasmid pFC27K_DCAF16 expressing DCAF16 with HaloTag added to the C-terminal. Sequencing was performed and confirmed that the sequence encoding DCAF16 matched NM_001345880.
Cultured HEK293 cells were washed with DPBS, no calcium, no magnesium (DPBS: Code No. 14190144, Thermo Fisher Scientific) and harvested using TrypLE™ Express Enzyme (1×), phenol red (TrypLE: Code No. 12605036, Thermo Fisher Scientific), and prepared to be 4.0×10^5 cells/mL in DMEM. A volume of 12 mL of the cell suspension was seeded in a Falcon® 100 mm×20 mm cell culture dish and cultured in a carbon dioxide gas incubator at 37° C. for 6 hours. For one dish, 12 μg of pFC27K_DCAF16, 0.12 μg of p FN31A_BRD2, 48 μL of FuGENE® HD Transfection Reagent (Code No. E2312, Promega) were added to 600 μL of Opti-MEM™ I Reduced Serum Medium, no phenol red (Opti-MEM: Code No. 11058021, Thermo Fisher Scientific) and mixed. The mixture was allowed to stand for 15 minutes and added to HEK293 cells. After 20 hours, the cells were washed with DPBS, no calcium, no magnesium, harvested from the dish using TrypLE, and then neutralized in DMEM. After centrifugation, the supernatant was discarded, and the cells were prepared to be 2.2×10^5 cells/mL using Opti-MEM containing 4% FBS. HaloTag® NanoBRET™ 618 Ligand contained in NanoBRET™ Nano-Glo® Detection System (Code No. N1662, Promega) and bortezomib as a proteasome inhibitor were added to be a 1000-fold dilution. In addition, a group was prepared to which DMSO was added instead of HaloTag® NanoBRET™ 618 Ligand. 90 μL of the cell suspension was seeded in CulturPlate-96 (Code No. 6005688, PerkinElmer), and allowed to stand in a carbon dioxide gas incubator at 37° C. for 30 minutes. A volume of 10 mmol/L of a solution of the test compound in DMSO was adjusted to be 100 μmol/L with Opti-MEM, 10 μL of the solution was added to each well, and then the mixture was allowed to stand in a carbon dioxide gas incubator at 37° C. for 2 hours. At this time, all the groups were prepared so that the final concentration of DMSO was 0.1 vol % including the group to which the test compound was not added. NanoBRET™ Nano-Glo® Substrate included in the NanoBRET™ Nano-Glo® Detection System was diluted 100-fold with Opti-MEM. After adding 25 μL of the dilution each and stirring for 30 seconds, measurement was performed with an Emission Filter of 460 nm and 620 nm using EnVision (PerkinElmer). The BRET ratio of 10 μmol/L for each test compound was calculated using the following formula. The experiment was performed by n=3 and the average value was calculated. […]
Consider `CCC(=O)N1c2ccccc2[C@H](Nc2ccc(C(=O)N3CCn4c(-c5ccc(N[C@@H]6C[C@H](C)N(C(=O)CC)c7ccccc76)cc5)cnc4C3)cc2)C[C@@H]1C` [Compound 3e, 1-[(2S,4R)-2-Methyl-4-({4-[3-(4-{[(2S,4R)-2-methyl-1-propionyl-1,2,3,4-tetrahydroquinolin-4-yl]amino}phenyl)-5,6,7,8-tetrahydroimidazo[1,2-a]pyrazine-7-carbonyl]phenyl}amino)-3,4-dihydroquinolin-1(2H)-yl]propan-1-one], for which the “BRET Ratio” value stood at 5.96.
Turning to `CCC(=O)N1c2ccccc2[C@H](Nc2ccc(NC(=O)CCCC(=O)NC3CCC(N[C@@H]4C[C@H](C)N(C(=O)CC)c5ccccc54)CC3)cc2)C[C@@H]1C` (stereo partly drawn) [Compound 7o, N^1-((1R,4r)-4-(((2S,4R)-2-Methyl-1-propionyl-1,2,3,4-tetrahydroquinolin-4-yl)amino)cyclohexyl)-N^5-(4-(((2S,4R)-2-methyl-1-propionyl-1,2,3,4-tetrahydroquinolin-4-yl)amino)phenyl)glutaramide], the “BRET Ratio” value was 6.69.
The result for `CCC(=O)N1c2ccccc2[C@H](Nc2ccc(NC(=O)CCCC(=O)NC3CCN(Cc4cc(O)cc(-c5c(C)noc5C)c4)CC3)cc2)C[C@@H]1C` [Compound 12c, N^1-(1-(3-(3,5-Dimethylisoxazol-4-yl)-5-hydroxybenzyl)piperidin-4-yl)-N^5-(4-(((2S,4R)-2-methyl-1-propionyl-1,2,3,4-tetrahydroquinolin-4-yl)amino)phenyl)glutaramide] reads 7.6; that for `CCC(=O)N1c2ccccc2[C@H](Nc2ccc(C(=O)NCc3cn(-c4ccc(N[C@@H]5C[C@H](C)N(C(=O)CC)c6ccccc65)cc4)nn3)cc2)C[C@@H]1C` [Compound 3a, 4-{[(2S,4R)-2-Methyl-1-propionyl-1,2,3,4-tetrahydroquinolin-4-yl]amino}-N-{[1-(4-{[(2S,4R)-2-methyl-1-propionyl-1,2,3,4-tetrahydroquinolin-4-yl]amino}phenyl)-1H-1,2,3-triazol-4-yl]methyl}benzamide], 8.51; that for `CCC(=O)N1c2ccccc2[C@H](Nc2ccc(NC(=O)N3CCN(C(=O)C4CCC(N[C@@H]5C[C@H](C)N(C(=O)CC)c6ccccc65)CC4)CC3)cc2)C[C@@H]1C` (stereo partly drawn) [Compound 7p, 4-((1R,4r)-4-(((2S,4R)-2-Methyl-1-propionyl-1,2,3,4-tetrahydroquinolin-4-yl)amino)cyclohexane-1-carbonyl)-N-(4-(((2S,4R)-2-methyl-1-propionyl-1,2,3,4-tetrahydroquinolin-4-yl)amino)phenyl)piperazine-1-carboxamide], 6.8.
The same measure for `CCC(=O)N1c2ccccc2[C@H](Nc2ccc(-n3cc(CCNC(=O)[C@H]4CC[C@H](N[C@@H]5C[C@H](C)N(C(=O)CC)c6ccccc65)CC4)nn3)cc2)C[C@@H]1C` [Compound 8a, (1R,4r)-4-(((2S,4R)-2-Methyl-1-propionyl-1,2,3,4-tetrahydroquinolin-4-yl)amino)-N-(2-(1-(4-(((2S,4R)-2-methyl-1-propionyl-1,2,3,4-tetrahydroquinolin-4-yl)amino)phenyl)-1H-1,2,3-triazol-4-yl)ethyl)cyclohexane-1-carboxamide]: 7.27.
For the compound `Cc1sc2c(c1C)C(c1ccc(C(=O)NCc3cn(-c4ccc(C5=N[C@@H](CC(=O)OC(C)(C)C)c6nnc(C)n6-c6sc(C)c(C)c65)cc4)nn3)cc1)=N[C@@H](CC(=O)OC(C)(C)C)c1nnc(C)n1-2` [Compound 3b, tert-Butyl 2-[(S)-4-(4-{4-[(4-{(S)-6-[2-(tert-butoxy)-2-oxoethyl]-2,3,9-trimethyl-6H-thieno[3,2-f][1,2,4]triazolo[4,3-a][1,4]diazepin-4-yl}benzamide)methyl]-1H-1,2,3-triazol-1-yl}phenyl)-2,3,9-trimethyl-6H-thieno[3,2-f][1,2,4]triazolo[4,3-a][1,4]diazepin-6-yl]acetate], the “BRET Ratio” value was found to be 6.06.
The result for `CCC(=O)N1c2ccccc2[C@H](Nc2ccc(NC(=O)CCCC(=O)Nc3ccc(N[C@@H]4C[C@H](C)N(C(=O)CC)c5ccccc54)cc3)cc2)C[C@@H]1C` [Compound 6k, N^1,N^5-Bis(4-(((2S,4R)-2-methyl-1-propionyl-1,2,3,4-tetrahydroquinolin-4-yl)amino)phenyl)glutaramide] reads 7.07; that for `CCC(=O)N1c2ccccc2[C@H](Nc2ccc(C(=O)NCCCNC(=O)c3ccc(C4=N[C@@H](CC(=O)OC(C)(C)C)c5nnc(C)n5-c5sc(C)c(C)c54)cc3)cc2)C[C@@H]1C` [Compound 1h, tert-Butyl 2-[(S)-2,3,9-trimethyl-4-(4-{[3-(4-{[(2S,4R)-2-methyl-1-propionyl-1,2,3,4-tetrahydroquinolin-4-yl]amino}benzamide)propyl]carbamoyl}phenyl)-6H-thieno[3,2-f][1,2,4]triazolo[4,3-a][1,4]diazepin-6-yl]acetate], 6.84.
The result for `CCC(=O)N1c2ccccc2[C@H](Nc2ccc(NC(=O)CNC(=O)N[C@H]3CC[C@H](N[C@@H]4C[C@H](C)N(C(=O)CC)c5ccccc54)CC3)cc2)C[C@@H]1C` [Compound 8j, 2-(3-((1R,4R)-4-(((2S,4R)-2-Methyl-1-propionyl-1,2,3,4-tetrahydroquinolin-4-yl)amino)cyclohexyl)ureido)-N-(4-(((2S,4R)-2-methyl-1-propionyl-1,2,3,4-tetrahydroquinolin-4-yl)amino)phenyl)acetamide] reads 7.07.
The same measure for `CCC(=O)N1c2ccccc2[C@H](Nc2ccc(-n3cc(CNC(=O)c4ccc(Cn5c(CC)cc6c5CCCC6=O)cc4)nn3)cc2)C[C@@H]1C` [Compound 15f, 4-((2-Ethyl-4-oxo-4,5,6,7-tetrahydro-1H-indol-1-yl)methyl)-N-((1-(4-(((2S,4R)-2-methyl-1-propionyl-1,2,3,4-tetrahydroquinolin-4-yl)amino)phenyl)-1H-1,2,3-triazol-4-yl)methyl)benzamide]: 5.99.
On to `CCC(=O)N1c2ccccc2[C@H](Nc2ccc(C(=O)NCC(=O)CNC(=O)c3ccc(N[C@@H]4C[C@H](C)N(C(=O)CC)c5ccccc54)cc3)cc2)C[C@@H]1C` [Compound 1l, N,N′-(2-Oxopropane-1,3-diyl)bis(4-{[(2S,4R)-2-methyl-1-propionyl-1,2,3,4-tetrahydroquinolin-4-yl]amino}benzamide)], for which the “BRET Ratio” value is given as 8.03.
The result for `CCC(=O)N1c2ccccc2[C@H](Nc2ccc(NC(=O)CCCC(=O)Nc3ccc(Cn4c(C(=O)OCCN(C)C)cc5c4CCCC5=O)cc3)cc2)C[C@@H]1C` [Compound 15a, 2-(Dimethylamino)ethyl 1-(4-(5-((4-(((2S,4R)-2-methyl-1-propionyl-1,2,3,4-tetrahydroquinolin-4-yl)amino)phenyl)amino)-5-oxopentanamide)benzyl)-4-oxo-4,5,6,7-tetrahydro-1H-indole-2-carboxylate] reads 5.88.
